How the values were obtained:
KB cell line = test: Cell growth inhibition assay on human cancer lines, parental KB; assay type: cell-based; details: cell type Oral, read-out: Cytotoxicity against KB
Method: (§1) Cell Growth Inhibition Assay: MCF-7 breast carcinoma cells were maintained in plastic dishes in DMEM medium supplemented with 10% fetal bovine serum. For in vitro treatment, tumor cells were seeded in […] of culture medium/well in 96-well plates to a final cell density of 6×10^3 cell/mL and incubated in a CO2 incubator at 37° C. for 24 h. The cells were treated with at least five different concentrations of a test indole compound, and incubated in a CO2 incubator at 37° C. for 72 h. The number of viable cells was estimated using MTS assay and absorbance was measured at 490 nm. Cytotoxicity of the test compounds was expressed in terms of IC50 values. The values presented represent averages of three independent experiments, each with duplicate samples.
(§2) Cell Growth Inhibition Assay on Multiple-drug Resistant Human Cancer Lines: Indole compounds were tested against several panels of drug-resistant cell lines. It is well known that several anti-mitotic agents, including vinca alkaloid (vincristine, vinblastine) and taxol, have been introduced in clinic to treat various human cancers. […] The mechanisms responsible for taxol resistance include overexpression of p-glycoprotein and mutation of tubulin. For comparison, […] anti-mitotic agents, i.e., Vincristine, VP-16, Cisplatin, CPT (camptothecin), and Taxol (paclitaxel) were also tested against several panels of drug-resistant cell lines. […]

HONE-1 cell line = test: Cell growth inhibition assay on human cancer lines, parental HONE-1; assay type: cell-based; details: NPC, read-out: Cytotoxicity against HONE-1
Method: as §1, §2

angiogenesis = details: cited from earlier work
[1] = cited from earlier work
[2] = system: human cancer cells, including multi-drug resistant cancer cells; details: wide variety of human cancer cells; cited from earlier work
[3] = system: colchicine binding site on tubulin; details: compared with colchicine; cited from earlier work

## N.N.[Cl][Pt][Cl] [Cisplatin]
KB cell line
  IC50: 3 nM
HONE-1 cell line
  IC50: 3000 nM

## COc1ccc(/C=C\c2cc(OC)c(OC)c(OC)c2)cc1O [CA-4, combretastatin A-4]
angiogenesis
  Anti-angiogenesis activity: anti-angiogenesis activity
[1]
  Water-solubility: low water-solubility
[2]
  Cytotoxicity against human cancer cells: strong cytotoxicity
[3]
  Affinity for the colchicine binding site on tubulin relative to colchicine: higher affinity for the colchicine binding site on tubulin than colchicine itself

— patent publication US6933316B2, “Indole compounds” (National Health Research Institutes, priority 2001, dated 2005)
